pEC50, pIC50: −log10 of the molar value. Values after ≈ are worked out from the molar mass of the structure shown. Like-named read-outs stand apart in the source and are kept apart here.
What was measured:
[1] = biological target: PfCDPK1 (Plasmodium falciparum (isolate 3D7), UniProt P62344); test: biochemical
[2] = biological target: HckKD (Homo sapiens (Human), UniProt P08631); test: Tyrosine kinase IC50, HckKD; type: biochemical; conditions: Table 9
[3] = biological target: PfCDPK4 (Plasmodium falciparum (isolate 3D7), UniProt Q8IBS5); test: biochemical
[4] = tested on: human promyelocytic leukemia (HL-60); test: Growth inhibition of human cell line HL-60
[5] = tested on: human lymphocyte (CRL8155); test: Growth inhibition of human cell line CRL8155
[6] = tested on: colorectal carcinoma (HC 2998); test: Growth inhibition of human cell line HC 2998
[7] = tested on: glioma derived (SF539); test: Growth inhibition of human cell line SF539
[8] = Solubility in buffers of various pH; type: physicochemical; conditions: buffer
[9] = biological target: TgCDPK1 (Toxoplasma gondii, UniProt Q9BJF5); type: biochemical; conditions: read-out: TgCDPK1 IC50
[10] = biological target: CpCDPK1 (Cryptosporidium parvum (strain Iowa II), UniProt A3FQ16); test: biochemical; type: biochemical; conditions: for pIC50: read-out: CpCDPK1 IC50
[11] = tested on: human fibroblast; test: Human fibroblast replication / cytotoxicity (Alamar blue); type: cell-based
[12] = pH 6.5, aqueous buffer, read-out: Experimental Solubility pH 6.5

Chain of HckKD (P08631 262-515): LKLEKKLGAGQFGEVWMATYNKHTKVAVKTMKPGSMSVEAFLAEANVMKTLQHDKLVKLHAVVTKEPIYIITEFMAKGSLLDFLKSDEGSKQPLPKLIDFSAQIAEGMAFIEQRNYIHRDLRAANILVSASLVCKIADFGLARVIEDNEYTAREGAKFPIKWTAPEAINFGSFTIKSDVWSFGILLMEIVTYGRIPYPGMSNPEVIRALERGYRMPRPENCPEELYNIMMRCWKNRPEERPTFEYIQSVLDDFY
Chain of CpCDPK1 (A3FQ16 1-538): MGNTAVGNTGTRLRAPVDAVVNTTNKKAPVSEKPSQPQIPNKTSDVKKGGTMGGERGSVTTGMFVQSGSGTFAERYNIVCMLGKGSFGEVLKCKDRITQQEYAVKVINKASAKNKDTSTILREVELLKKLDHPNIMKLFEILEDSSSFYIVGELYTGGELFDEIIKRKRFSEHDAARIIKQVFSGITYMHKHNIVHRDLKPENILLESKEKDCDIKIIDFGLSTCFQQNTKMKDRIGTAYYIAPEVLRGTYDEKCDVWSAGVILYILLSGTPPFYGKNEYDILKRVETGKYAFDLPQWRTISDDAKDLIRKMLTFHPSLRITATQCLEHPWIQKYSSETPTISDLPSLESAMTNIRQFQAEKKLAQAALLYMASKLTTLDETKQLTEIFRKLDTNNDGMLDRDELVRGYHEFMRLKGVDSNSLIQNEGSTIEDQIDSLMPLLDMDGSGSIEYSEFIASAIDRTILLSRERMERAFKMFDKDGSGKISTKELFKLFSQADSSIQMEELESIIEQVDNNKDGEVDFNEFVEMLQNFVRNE
Chain of TgCDPK1 (Q9BJF5 1-507): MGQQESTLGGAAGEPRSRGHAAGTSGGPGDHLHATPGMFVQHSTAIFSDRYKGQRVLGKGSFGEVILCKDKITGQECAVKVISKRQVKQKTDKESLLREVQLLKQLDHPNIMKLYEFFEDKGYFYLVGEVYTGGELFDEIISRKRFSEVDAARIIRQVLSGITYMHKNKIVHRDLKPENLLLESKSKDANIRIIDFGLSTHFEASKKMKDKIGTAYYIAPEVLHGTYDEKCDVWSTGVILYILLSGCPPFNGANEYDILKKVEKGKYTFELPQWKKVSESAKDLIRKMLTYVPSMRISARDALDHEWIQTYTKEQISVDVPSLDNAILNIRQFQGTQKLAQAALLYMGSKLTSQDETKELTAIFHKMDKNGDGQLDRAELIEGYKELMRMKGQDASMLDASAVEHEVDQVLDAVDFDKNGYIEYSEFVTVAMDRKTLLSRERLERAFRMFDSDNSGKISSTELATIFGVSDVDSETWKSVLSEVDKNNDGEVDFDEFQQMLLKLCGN

| SMILES | pEC50 [1] | pEC50 [3] | Cell Toxicity HL60, % at 10 μM [4] | Cell Toxicity CRL8155, % at 10 μM [5] | Cell Toxicity HCC2998, % at 10 μM [6] | Cell Toxicity SF539, % at 10 μM [7] | further results |
| --- | --- | --- | --- | --- | --- | --- | --- |
| CC(C)Oc1ccc2cc(-c3nn(CC4CCNCC4)c4ncnc(N)c34)ccc2c1 [Compound 32, 3-(6-isopropoxynaphthalen-2-yl)-1-(piperidin-4-ylmethyl)-1H-pyrazolo[3,4-d]pyrimidin-4-amine] | 6.44 | 7.26 | – | – | – | – | IC50 [2]: > 10 µM |
| CCN1CCC(Cn2nc(Cc3cccc4ccccc34)c3c(N)ncnc32)CC1 [Compound 5n, 1-((1-ethylpiperidin-4-yl)methyl)-3-(naphthalen-1-ylmethyl)-1H-pyrazolo[3,4-d]pyrimidin-4-amine] | – | – | <30% at 10 μM | <30% at 10 μM | <30% at 10 μM | <30% at 10 μM | – |
| CC(C)n1nc(-c2cnc3ccccc3c2)c2c(N)ncnc21 [Compound 7t, 1-isopropyl-3-(quinolin-3-yl)-1H-pyrazolo[3,4-d]pyrimidin-4-amine] | 5.87 | 6.77 | <30% at 10 μM | <30% at 10 μM | <30% at 10 μM | <30% at 10 μM | – |
| CC(C)n1nc(-c2ccc(Cl)c(Cl)c2)c2c(N)ncnc21 [Compound 7c, 3-(3,4-dichlorophenyl)-1-isopropyl-1H-pyrazolo[3,4-d]pyrimidin-4-amine] | – | – | – | – | – | – | Cell Toxicity HL60, % at 25 μM [4]: 51% at 25 μM; Cell Toxicity CRL8155, % at 25 μM [5]: 54% at 25 μM; Cell Toxicity HCC2998, % at 25 μM [6]: <30% at 25 μM; Cell Toxicity SF539, % at 25 μM [7]: 31% at 25 μM |
| CCCOc1ccc2cc(-c3nn(C(C)C)c4ncnc(N)c34)ccc2c1 [Compound 12, 1-isopropyl-3-(6-propoxynaphthalen-2-yl)-1H-pyrazolo[3,4-d]pyrimidin-4-amine] | 6.18 | 6.28 | <30% at 10 μM | <30% at 10 μM | <30% at 10 μM | <30% at 10 μM | IC50 [2]: 0.244 µM |
| CC(C)n1nc(-c2ccc3ccccc3c2)c2c(N)ncnc21 [Compound 7p, 1-isopropyl-3-(naphthalen-2-yl)-1H-pyrazolo[3,4-d]pyrimidin-4-amine] | 6.42 | 6.85 | 35% at 10 μM | – | – | 54% at 10 μM | Cell Toxicity HL60, % at 25 μM [4]: 50% at 25 μM;; GI50 ([4]; read-out: GI50 (μM) HL60, human cell line HL60): > 10 µM; Cell Toxicity CRL8155, % at 25 μM [5]: 46% at 25 μM; GI50 ([5]; read-out: GI50 (μM) CRL8155, human cell line CRL8155): > 10 µM; Cell Toxicity HCC2998, % at 25 μM [6]: <30% at 25 μM; GI50 ([6]; read-out: GI50 (μM) HCC2998, human cell line HCC2998): ~10 µM; Cell Toxicity SF539, % at 25 μM [7]: 84% at 25 μM;; GI50 ([7]; read-out: GI50 (μM) SF539, human cell line SF539): > 10 µM |
| CC(C)(C)n1nc(-c2ccc3ccccc3c2)c2c(N)ncnc21 [Compound 2, 1-tert-butyl-3-(naphthalen-2-yl)-1H-pyrazolo[3,4-d]pyrimidin-4-amine] | 5.90 | 6.32 | – | – | – | – | Cell Toxicity HL60, % at 25 μM [4]: <30% at 25 μM;; Cell Toxicity HL60, % at 30 μM [4]: <30% at 30 μM; Cell Toxicity CRL8155, % at 25 μM [5]: 37% at 25 μM;; Cell Toxicity CRL8155, % at 30 μM [5]: <30% at 30 μM; solubility ([8]; aqueous buffer, pH 2.0, read-out: Experimental Solubility pH 2.0): 43 µM (≈ 13.6 µg/mL); solubility [8, 12]: 2.4 µM (≈ 0.762 µg/mL); solubility ([8]; pH 7.4, aqueous buffer, read-out: Experimental Solubility pH 7.4): 1.5 µM (≈ 0.476 µg/mL); Cell Toxicity HCC2998, % at 25 μM [6]: <30% at 25 μM; Cell Toxicity SF539, % at 25 μM [7]: <30% at 25 μM |
| Nc1ncnc2c1c(Cc1cccc3ccccc13)nn2C1CCNCC1 [Compound 5g, 3-(naphthalen-1-ylmethyl)-1-(piperidin-4-yl)-1H-pyrazolo[3,4-d]pyrimidin-4-amine] | – | – | <30% at 10 μM | <30% at 10 μM | <30% at 10 μM | <30% at 10 μM | pIC50 [9]: 7.23; IC50 ([10]; read-out: IC50 (μM) CpCDPK1): 0.056 µM |
| Nc1ncnc2c1c(-c1ccc3cc(OCc4cccc(Cl)c4)ccc3c1)nn2CC1CCNCC1 [Compound 38, 3-(6-(3-chlorobenzyloxy)naphthalen-2-yl)-1-(piperidin-4-ylmethyl)-1H-pyrazolo[3,4-d]pyrimidin-4-amien] | 7.34 | 7.46 | <30% at 10 μM | <30% at 10 μM | – | – | Cell Toxicity HL60, % at 30 μM [4]: 98% at 30 μM; Cell Toxicity CRL8155, % at 30 μM [5]: 98% at 30 μM; Observed HFF Toxicity (T at concentration) [11]: T at 100 μM |
| Nc1ncnc2c1c(-c1ccc3cc(OCc4ccccc4Cl)ccc3c1)nn2CC1CCNCC1 [Compound 37, 3-(6-(2-chlorobenzyloxy)naphthalen-2-yl)-1-(piperidin-4-ylmethyl)-1H-pyrazolo[3,4-d]pyrimidin-4-amine] | 7.02 | 7.15 | – | – | – | – | Observed HFF Toxicity (T at concentration) [11]: T at 100 μM |
| Nc1ncnc2c1c(Cc1cccc3ccccc13)nn2CCC1CCNCC1 [Compound 5i, 3-(naphthalen-1-ylmethyl)-1-(2-(piperidin-4-yl)ethyl)-1H-pyrazolo[3,4-d]pyrimidin-4-amine] | – | 6.22 | <30% at 10 μM; | <30% at 10 μM; | <30% at 10 μM | <30% at 10 μM | Cell Toxicity HL60, % at 30 μM [4]: <30% at 30 μM; Cell Toxicity CRL8155, % at 30 μM [5]: <30% at 30 μM; pIC50 [9]: 7.28; pIC50 [10]: 7.47 |
| Nc1ncnc2c1c(-c1ccc3oc(-c4ccccc4)nc3c1)nn2CC1CCNCC1 [Compound 120] | 7.59 | 6.67 | – | – | – | – | Observed HFF Toxicity (T at concentration) [11]: T at 25 μM; solubility [8, 12]: 44 µM (≈ 18.7 µg/mL) |
| CC(C)n1nc(-c2ccc3cc(OCc4ccccc4)ccc3c2)c2c(N)ncnc21 [Compound 40, 3-(6-(benzyloxy)naphthalen-2-yl)-1-isopropyl-1H-pyrazolo[3,4-d]pyrimidin-4-amine] | 7.02 | 6.29 | – | – | – | – | Observed HFF Toxicity (T at concentration) [11]: T at 100 μM |
| CCOc1ccc2cc(-c3nn(C(C)C)c4ncnc(N)c34)ccc2c1 [Compound 7r, 3-(6-ethoxynaphthalen-2-yl)-1-isopropyl-1H-pyrazolo[3,4-d]pyrimidin-4-amine] | 5.89 | 6.37 | <30% at 10 μM | <30% at 10 μM | <30% at 10 μM | <30% at 10 μM | solubility [8, 12]: 12 µM (≈ 4.17 µg/mL); IC50 [2]: 0.218 µM; pIC50 [10]: 7.92 |
| CC(C)n1nc(Cc2cccc3ccccc23)c2c(N)ncnc21 [Compound 3, 1-isopropyl-3-(naphthalen-1-ylmethyl)-1H-pyrazolo[3,4-d]pyrimidin-4-amine] | – | – | <30% at 10 μM | <30% at 10 μM | <30% at 10 μM | <30% at 10 μM | IC50 [2]: 1.38 µM |
| CC(C)Oc1ccc2cc(-c3nn(C(C)C)c4ncnc(N)c34)ccc2c1 [Compound 11, 3-(6-isopropoxynaphthalen-2-yl)-1-isopropyl-1H-pyrazolo[3,4-d]pyrimidin-4-amine] | 6.43 | 6.26 | <30% at 10 μM | <30% at 10 μM | <30% at 10 μM | <30% at 10 μM | IC50 [2]: 0.541 µM |
| CS(=O)(=O)N1CCC(n2nc(Cc3cccc4ccccc34)c3c(N)ncnc32)CC1 [Compound 5p, 1-(1-(methylsulfonyl)piperidin-4-yl)-3-(naphthalen-1-ylmethyl)-1H-pyrazolo[3,4-d]pyrimidin-4-amine] | – | – | – | – | – | – | Cell Toxicity HL60, % at 25 μM [4]: <30% at 25 μM; Cell Toxicity CRL8155, % at 25 μM [5]: <30% at 25 μM; Cell Toxicity HCC2998, % at 25 μM [6]: <30% at 25 μM; Cell Toxicity SF539, % at 25 μM [7]: <30% at 25 μM |
